Measured values as given in patent US9452986B2, “6-heteroaryloxy- or 6-aryloxy-quinoline-2-carboxamides and method of use” (AbbVie Inc., priority 2014, dated 2016).
Like-named read-outs stand apart in the source and are kept apart here.

Biological target: recombinant human Nav1.7 (Homo sapiens (Human), UniProt Q15858)
Assay: FRET-based membrane potential assay, recombinant human sodium channel Nav1.7
Type: cell-based
Summary of the method: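 Channel activation used veratridine at its EC80, set by a dilution curve each experiment, together with Leiurus scorpion venom, added 3 min after compound. Membrane-potential ratio signals from FLIPR Tetra in HEPES-buffered HBSS were fitted to a four-parameter Hill equation for percent inhibition and IC50.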

[1] = HEK293 cells stably expressing recombinant human Nav1.7, veratridine + scorpion venom depolarization, read-out: FRET-Membrane Potential Nav1.7 IC50
[2] = FRET-Membrane Potential Nav1.7 IC50

Sequence of recombinant human Nav1.7 (Q15858 whole entry): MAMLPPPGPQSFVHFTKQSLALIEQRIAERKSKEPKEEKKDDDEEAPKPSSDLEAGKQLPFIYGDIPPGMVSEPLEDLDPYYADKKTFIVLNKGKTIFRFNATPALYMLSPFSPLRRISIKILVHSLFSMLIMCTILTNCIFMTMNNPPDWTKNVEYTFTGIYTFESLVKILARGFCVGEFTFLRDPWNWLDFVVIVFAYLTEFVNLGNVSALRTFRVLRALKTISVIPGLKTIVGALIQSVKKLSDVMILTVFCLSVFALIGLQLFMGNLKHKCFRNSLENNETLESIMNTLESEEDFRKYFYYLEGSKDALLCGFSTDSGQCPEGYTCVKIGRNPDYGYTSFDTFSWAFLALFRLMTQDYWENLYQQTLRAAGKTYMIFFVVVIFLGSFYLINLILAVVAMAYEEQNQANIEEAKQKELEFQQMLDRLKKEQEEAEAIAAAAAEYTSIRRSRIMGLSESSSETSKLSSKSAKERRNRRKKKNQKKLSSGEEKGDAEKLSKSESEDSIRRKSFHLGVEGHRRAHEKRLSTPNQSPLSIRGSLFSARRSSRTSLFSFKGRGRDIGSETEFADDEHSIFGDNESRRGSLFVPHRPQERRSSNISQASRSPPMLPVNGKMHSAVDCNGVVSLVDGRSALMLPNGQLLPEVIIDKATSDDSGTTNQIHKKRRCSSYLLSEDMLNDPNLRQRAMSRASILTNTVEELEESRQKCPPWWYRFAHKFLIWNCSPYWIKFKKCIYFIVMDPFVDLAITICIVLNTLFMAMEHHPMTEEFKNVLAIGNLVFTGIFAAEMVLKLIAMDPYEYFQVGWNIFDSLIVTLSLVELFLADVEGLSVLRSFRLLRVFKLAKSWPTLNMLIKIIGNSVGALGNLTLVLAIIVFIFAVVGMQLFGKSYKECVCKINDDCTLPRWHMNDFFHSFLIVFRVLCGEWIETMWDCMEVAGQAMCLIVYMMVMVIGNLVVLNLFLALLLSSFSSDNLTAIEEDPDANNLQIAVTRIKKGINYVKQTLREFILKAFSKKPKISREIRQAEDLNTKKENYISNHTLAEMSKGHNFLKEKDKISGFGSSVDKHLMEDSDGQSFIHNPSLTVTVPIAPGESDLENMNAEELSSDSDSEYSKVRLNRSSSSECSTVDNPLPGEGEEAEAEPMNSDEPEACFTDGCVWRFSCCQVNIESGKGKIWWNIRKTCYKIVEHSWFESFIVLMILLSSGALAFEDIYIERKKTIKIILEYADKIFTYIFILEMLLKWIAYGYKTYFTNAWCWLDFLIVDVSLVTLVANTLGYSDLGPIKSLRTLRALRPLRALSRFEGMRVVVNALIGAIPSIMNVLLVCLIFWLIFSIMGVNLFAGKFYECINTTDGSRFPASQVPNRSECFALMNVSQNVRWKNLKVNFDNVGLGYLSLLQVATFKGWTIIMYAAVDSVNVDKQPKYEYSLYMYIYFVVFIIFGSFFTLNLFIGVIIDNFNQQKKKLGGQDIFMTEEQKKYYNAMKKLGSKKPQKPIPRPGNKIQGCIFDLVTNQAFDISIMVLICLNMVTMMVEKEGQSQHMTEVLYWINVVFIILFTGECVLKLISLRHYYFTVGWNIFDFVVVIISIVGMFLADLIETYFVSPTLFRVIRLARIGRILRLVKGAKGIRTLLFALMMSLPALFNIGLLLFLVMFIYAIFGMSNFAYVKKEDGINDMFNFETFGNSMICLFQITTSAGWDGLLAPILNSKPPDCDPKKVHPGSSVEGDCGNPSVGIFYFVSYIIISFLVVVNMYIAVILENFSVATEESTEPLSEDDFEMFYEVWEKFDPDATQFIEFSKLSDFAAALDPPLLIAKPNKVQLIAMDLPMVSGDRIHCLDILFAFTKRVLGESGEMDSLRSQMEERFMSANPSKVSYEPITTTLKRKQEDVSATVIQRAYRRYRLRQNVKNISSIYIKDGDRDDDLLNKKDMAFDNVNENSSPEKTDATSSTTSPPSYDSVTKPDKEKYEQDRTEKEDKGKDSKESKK

`N#Cc1ccc(Oc2ccc3nc(C(=O)NCc4ccncc4)ccc3c2)cc1` [Example 98, 6-(4-cyanophenoxy)-N-(pyridin-4-ylmethyl)quinoline-2-carboxamide] gave an IC50 [1] of 885 nM.
In the case of `CNC(=O)[C@@H]1CCCN1C(=O)c1ccc2cc(Oc3ccc(C(F)(F)F)cn3)ccc2n1` [Example 239, N-methyl-1-[(6-{[5-(trifluoromethyl)pyridin-2-yl]oxy}quinolin-2-yl)carbonyl]-L-prolinamide], the IC50 [1] is reported as greater than 20000 nM.
`O=C(c1ccc2cc(Oc3ccc(C(F)(F)F)cn3)ccc2n1)N1CC(c2cccnc2)C1` [Example 217, [3-(pyridin-3-yl)azetidin-1-yl](6-{[5-(trifluoromethyl)pyridin-2-yl]oxy}quinolin-2-yl)methanone] showed an IC50 [1] of 1040 nM.
With `O=C(NCCC(=O)N1CCCC1)c1ccc2cc(Oc3ccc(C(F)(F)F)nc3)ccc2n1` [Example 516, N-[3-oxo-3-(pyrrolidin-1-yl)propyl]-6-{[6-(trifluoromethyl)pyridin-3-yl]oxy}quinoline-2-carboxamide] the IC50 [1] was 2000 nM.
With `O=C(c1ccc2cc(Oc3ccc(C(F)(F)F)nc3)ccc2n1)N1CC[C@@H](F)C1` [Example 548, [(3R)-3-fluoropyrrolidin-1-yl](6-{[6-(trifluoromethyl)pyridin-3-yl]oxy}quinolin-2-yl)methanone] the IC50 [1] was 4050 nM.
`O=C(c1ccc2cc(Oc3ccc(C(F)(F)F)cn3)ccc2n1)N1CCS(=O)(=O)CC1` [Example 227, (1,1-dioxidothiomorpholin-4-yl)(6-{[5-(trifluoromethyl)pyridin-2-yl]oxy}quinolin-2-yl)methanone] showed an IC50 [1] of 2940 nM.
Compound `N#Cc1ccc(Oc2ccc3nc(C(=O)NCC(N)=O)ccc3c2)cc1` [Example 146, N-(2-amino-2-oxoethyl)-6-(4-cyanophenoxy)quinoline-2-carboxamide] has an IC50 [1] of 8030 nM.
In the case of `CS(=O)(=O)c1ccc(Oc2ccc3nc(C(=O)N4CCNCC4)ccc3c2)cc1` [Example 214, {6-[4-(methylsulfonyl)phenoxy]quinolin-2-yl}(piperazin-1-yl)methanone], the IC50 [1] is reported as greater than 20000 nM.
`O=C(c1ccc2cc(Oc3ccc(C(F)(F)F)cn3)ccc2n1)N1CCC2(CC(O)C2)C1` (stereo not drawn) [Example 345, (2-hydroxy-6-azaspiro[3.4]oct-6-yl)(6-{[5-(trifluoromethyl)pyridin-2-yl]oxy}quinolin-2-yl)methanone] was tested, and the IC50 [1] was 9150 nM.
In the case of `O=C(c1ccc2cc(Oc3ccc(C(F)(F)F)cn3)ccc2n1)N1CC[C@H](O)[C@H](F)C1` (relative stereo) [Example 191, [cis-3-fluoro-4-hydroxypiperidin-1-yl](6-{[5-(trifluoromethyl)pyridin-2-yl]oxy}quinolin-2-yl)methanone], the IC50 [2] is reported as greater than 20000 nM.
`O=C(NCCF)c1ccc2cc(Oc3ccc(C(F)(F)F)cn3)ccc2n1` [Example 346, N-(2-fluoroethyl)-6-{[5-(trifluoromethyl)pyridin-2-yl]oxy}quinoline-2-carboxamide] gave an IC50 [1] of 2500 nM.
`O=C(c1ccc2cc(Oc3ccc(C(F)(F)F)cn3)ccc2n1)N1CCN(Cc2cocn2)CC1` [Example 315, [4-(1,3-oxazol-4-ylmethyl)piperazin-1-yl](6-{[5-(trifluoromethyl)pyridin-2-yl]oxy}quinolin-2-yl)methanone] gave an IC50 [1] of 6120 nM.
`O=C(c1ccc2cc(Oc3ccc(C(F)(F)F)cn3)ccc2n1)N1CCNCC1C(F)(F)F` (stereo not drawn) [Example 598, [2-(trifluoromethyl)piperazin-1-yl](6-{[5-(trifluoromethyl)pyridin-2-yl]oxy}quinolin-2-yl)methanone] was tested, and the IC50 [1] was 2980 nM.
In the case of `O=C1CCN(C(=O)CNC(=O)c2ccc3cc(Oc4ccc(C(F)(F)F)cn4)ccc3n2)C1` [Example 572, N-[2-oxo-2-(3-oxopyrrolidin-1-yl)ethyl]-6-{[5-(trifluoromethyl)pyridin-2-yl]oxy}quinoline-2-carboxamide], the IC50 [1] is reported as 2700 nM.
For `O=C(c1ccc2cc(Oc3ccc(C(F)(F)F)cn3)ccc2n1)N1C[C@H](F)C[C@@H]1c1cc(F)ccc1F` [Example 180, [(2R,4R)-2-(2,5-difluorophenyl)-4-fluoropyrrolidin-1-yl](6-{[5-(trifluoromethyl)pyridin-2-yl]oxy}quinolin-2-yl)methanone], the IC50 [1] was 675 nM.
`N#Cc1ccc(Oc2ccc3nc(C(=O)N[C@H]4CCC[C@@H](O)C4)ccc3c2)cc1` [Example 129, 6-(4-cyanophenoxy)-N-[(1S,3R)-3-hydroxycyclohexyl]quinoline-2-carboxamide] was tested, and the IC50 [1] was 2580 nM.
With `O=C(c1ccc2cc(Oc3ccc(C(F)(F)F)nc3)ccc2n1)N1CC(N2CCOCC2)C1` [Example 554, [3-(morpholin-4-yl)azetidin-1-yl](6-{[6-(trifluoromethyl)pyridin-3-yl]oxy}quinolin-2-yl)methanone] the IC50 [1] was 14100 nM.
Work on `O=C(NCCN1CCCC1=O)c1ccc2cc(Oc3ccc(C(F)(F)F)cn3)ccc2n1` [Example 337, N-[2-(2-oxopyrrolidin-1-yl)ethyl]-6-{[5-(trifluoromethyl)pyridin-2-yl]oxy}quinoline-2-carboxamide] yielded an IC50 (read-out: FRET-Membrane Potential Nav1.7 IC50) of 1660 nM.
Compound `O=C1NC[C@@H]2CN(C(=O)c3ccc4cc(Oc5ccc(C(F)(F)F)cn5)ccc4n3)C[C@H]12` [Example 166, (3 aR,6aR)-5-[(6-{[5-(trifluoromethyl)pyridin-2-yl]oxy}quinolin-2-yl)carbonyl]hexahydropyrrolo[3,4-c]pyrrol-1(2H)-one] has an IC50 [1] of 11100 nM.
`O=C(c1ccc2cc(Oc3ccc(C(F)(F)F)cn3)ccc2n1)N1C[C@@H]2CCN[C@@H]2C1` [Example 280, (3 aS,6aS)-hexahydropyrrolo[3,4-b]pyrrol-5(1H)-yl(6-{[5-(trifluoromethyl)pyridin-2-yl]oxy}quinolin-2-yl)methanone] showed an IC50 [1] of 605 nM.
With `O=C(c1ccc2cc(Oc3ccc(C(F)(F)F)cn3)ccc2n1)N1CCC2(COC2)C1` [Example 494, 2-oxa-6-azaspiro[3.4]oct-6-yl(6-{[5-(trifluoromethyl)pyridin-2-yl]oxy}quinolin-2-yl)methanone] the IC50 [1] was 9320 nM.
For `CC(=O)N1CCN(C(=O)c2ccc3cc(Oc4ccc(C(F)(F)F)cn4)ccc3n2)CC1` [Example 218, 1-{4-[(6-{[5-(trifluoromethyl)pyridin-2-yl]oxy}quinolin-2-yl)carbonyl]piperazin-1-yl}ethanone], the IC50 [1] was greater than 20000 nM.
`CN(C(=O)c1ccc2cc(Oc3ccc(C(F)(F)F)cn3)ccc2n1)C1COC1` [Example 480, N-methyl-N-(oxetan-3-yl)-6-{[5-(trifluoromethyl)pyridin-2-yl]oxy}quinoline-2-carboxamide] gave an IC50 [1] of 19900 nM.
`O=C(c1ccc2cc(Oc3ccc(C(F)(F)F)cn3)ccc2n1)N1CC(n2ccnc2)C1` [Example 202, [3-(1H-imidazol-1-yl)azetidin-1-yl](6-{[5-(trifluoromethyl)pyridin-2-yl]oxy}quinolin-2-yl)methanone] was tested, and the IC50 [1] was 911 nM.
`O=C(c1ccc2cc(Oc3ccc(C(F)(F)F)cn3)ccc2n1)N1CCN[C@H](CO)C1` [Example 276, [(3S)-3-(hydroxymethyl)piperazin-1-yl](6-{[5-(trifluoromethyl)pyridin-2-yl]oxy}quinolin-2-yl)methanone] was tested, and the IC50 [2] was 3100 nM.
Work on `O=C(NCC(=O)N1CCCCC1)c1ccc2cc(Oc3ccc(C(F)(F)F)nc3)ccc2n1` [Example 518, N-[2-oxo-2-(piperidin-1-yl)ethyl]-6-{[6-(trifluoromethyl)pyridin-3-yl]oxy}quinoline-2-carboxamide] yielded an IC50 [1] of 998 nM.
`O=C(NC1CCC(F)(F)CC1)c1ccc2cc(Oc3ccc(C(F)(F)F)nc3)ccc2n1` [Example 511, N-(4,4-difluorocyclohexyl)-6-{[6-(trifluoromethyl)pyridin-3-yl]oxy}quinoline-2-carboxamide] was tested, and the IC50 [1] was 1980 nM.
